PubChem BioAssay (NCI)
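Each compound was tested at five concentrations against cells in 96-well plates for 48 hours. TGI: concentration producing complete growth inhibition.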

How the values were obtained:
Test in all cases: NCI anticancer screen, dose series, 48 h
DU-145 prostate = tested on: DU-145 prostate
MDA-N = tested on: MDA-N
RXF 393 renal = tested on: RXF 393 renal
UACC-62 melanoma = tested on: UACC-62 melanoma
HT29 colon = tested on: HT29 colon
NCI/ADR-RES ovarian = tested on: NCI/ADR-RES ovarian
EKVX NSCLC = tested on: EKVX NSCLC
SNB-19 CNS = tested on: SNB-19 CNS
NCI-H23 lung = tested on: NCI-H23 lung
LOX IMVI melanoma = tested on: LOX IMVI melanoma
CCRF-CEM leukemia = tested on: CCRF-CEM leukemia
NCI-H522 lung = tested on: NCI-H522 lung
SN12C renal = tested on: SN12C renal
PC-3 prostate = tested on: PC-3 prostate
OVCAR-5 ovarian = tested on: OVCAR-5 ovarian
TK-10 renal = tested on: TK-10 renal
UACC-257 melanoma = tested on: UACC-257 melanoma
MALME-3M melanoma = tested on: MALME-3M melanoma
MDA-MB-435 = tested on: MDA-MB-435
OVCAR-8 ovarian = tested on: OVCAR-8 ovarian
A498 renal = tested on: A498 renal
OVCAR-3 ovarian = tested on: OVCAR-3 ovarian
HS 578T breast = tested on: HS 578T breast
ACHN renal = tested on: ACHN renal
T-47D breast = tested on: T-47D breast
HOP-92 NSCLC = tested on: HOP-92 NSCLC
SF-539 CNS = tested on: SF-539 CNS
UO-31 renal = tested on: UO-31 renal
HCT-116 colon = tested on: HCT-116 colon
HCT-15 colon = tested on: HCT-15 colon
HCC-2998 colon = tested on: HCC-2998 colon
SK-MEL-28 melanoma = tested on: SK-MEL-28 melanoma
A549 NSCLC = tested on: A549 NSCLC
SK-MEL-2 melanoma = tested on: SK-MEL-2 melanoma
RPMI-8226 leukemia = tested on: RPMI-8226 leukemia
HOP-62 NSCLC = tested on: HOP-62 NSCLC
SF-295 CNS = tested on: SF-295 CNS
SF-268 CNS = tested on: SF-268 CNS
NCI-H460 lung = tested on: NCI-H460 lung
KM12 colon = tested on: KM12 colon
MDA-MB-231 breast = tested on: MDA-MB-231 breast
SNB-75 CNS = tested on: SNB-75 CNS
K-562 leukemia = tested on: K-562 leukemia
COLO 205 colon = tested on: COLO 205 colon
U251 CNS = tested on: U251 CNS
SW-620 colon = tested on: SW-620 colon
MCF7 breast = tested on: MCF7 breast
IGROV1 ovarian = tested on: IGROV1 ovarian
786-0 renal = tested on: 786-0 renal
HL-60(TB) leukemia = tested on: HL-60(TB) leukemia
BT-549 breast = tested on: BT-549 breast
SK-MEL-5 melanoma = tested on: SK-MEL-5 melanoma
M14 melanoma = tested on: M14 melanoma
SK-OV-3 ovarian = tested on: SK-OV-3 ovarian
CAKI-1 renal = tested on: CAKI-1 renal
OVCAR-4 ovarian = tested on: OVCAR-4 ovarian
NCI-H226 lung = tested on: NCI-H226 lung
MOLT-4 leukemia = tested on: MOLT-4 leukemia

**Q.** Which results are given for `O=C1C(Cl)=C(Cl)C(Cl)(Cl)C(Cl)C1(Cl)Cl` (centres undefined)?
**A.** TGI (DU-145 prostate): > 100 µM; TGI (MDA-N): 66.2 µM; TGI (RXF 393 renal): 44.5 µM; TGI (UACC-62 melanoma): 32.9 µM; TGI (HT29 colon): 71.5 µM; TGI (NCI/ADR-RES ovarian): 64 µM; TGI (EKVX NSCLC): 50.9 µM; TGI (SNB-19 CNS): 61 µM; TGI (NCI-H23 lung): 52.9 µM; TGI (LOX IMVI melanoma): 41.6 µM; TGI (CCRF-CEM leukemia): 82.7 µM; TGI (NCI-H522 lung): 32.5 µM; TGI (SN12C renal): 50.6 µM; TGI (PC-3 prostate): 77.1 µM; TGI (OVCAR-5 ovarian): 58 µM; TGI (TK-10 renal): 65.3 µM; TGI (UACC-257 melanoma): 44.8 µM; TGI (MALME-3M melanoma): 49.5 µM; TGI (MDA-MB-435): 59.2 µM; TGI (OVCAR-8 ovarian): > 100 µM; TGI (A498 renal): 29.8 µM; TGI (OVCAR-3 ovarian): 47.4 µM; TGI (HS 578T breast): 64.9 µM; TGI (ACHN renal): > 100 µM; TGI (T-47D breast): 75.9 µM; TGI (HOP-92 NSCLC): 59.8 µM; TGI (SF-539 CNS): 32.8 µM; TGI (UO-31 renal): 32.7 µM; TGI (HCT-116 colon): 42.9 µM; TGI (HCT-15 colon): 98.8 µM; TGI (HCC-2998 colon): 34.9 µM; TGI (SK-MEL-28 melanoma): 62.1 µM; TGI (A549 NSCLC): 51.3 µM; TGI (SK-MEL-2 melanoma): 34.3 µM; TGI (RPMI-8226 leukemia): 70.4 µM; TGI (HOP-62 NSCLC): 76.2 µM; TGI (SF-295 CNS): 50.8 µM; TGI (SF-268 CNS): 51.3 µM; TGI (NCI-H460 lung): 47.4 µM; TGI (KM12 colon): 50.6 µM; TGI (MDA-MB-231 breast): 44.6 µM; TGI (SNB-75 CNS): 58.6 µM; TGI (K-562 leukemia): > 100 µM; TGI (COLO 205 colon): 41.2 µM; TGI (U251 CNS): 44.6 µM; TGI (SW-620 colon): 54.7 µM; TGI (MCF7 breast): 55 µM; TGI (IGROV1 ovarian): 33.2 µM; TGI (786-0 renal): > 100 µM; TGI (HL-60(TB) leukemia): 58.4 µM; TGI (BT-549 breast): 54.1 µM; TGI (SK-MEL-5 melanoma): 27.6 µM; TGI (M14 melanoma): 90.8 µM; TGI (SK-OV-3 ovarian): 74.1 µM

**Q.** What does the source list for `O=c1c(-c2ccccc2)c(SCCN2CCCC2)n(-c2ccccc2)c(=S)n1-c1ccccc1`?
**A.** TGI (DU-145 prostate): > 100 µM; TGI (MDA-N): > 100 µM; TGI (RXF 393 renal): > 100 µM; TGI (UACC-62 melanoma): > 100 µM; TGI (HT29 colon): > 100 µM; TGI (NCI/ADR-RES ovarian): > 100 µM; TGI (EKVX NSCLC): > 100 µM; TGI (SNB-19 CNS): > 100 µM; TGI (NCI-H23 lung): > 100 µM; TGI (LOX IMVI melanoma): > 100 µM; TGI (CCRF-CEM leukemia): > 100 µM; TGI (NCI-H522 lung): > 100 µM; TGI (SN12C renal): > 100 µM; TGI (PC-3 prostate): > 100 µM; TGI (OVCAR-5 ovarian): > 100 µM; TGI (TK-10 renal): > 100 µM; TGI (UACC-257 melanoma): > 100 µM; TGI (MALME-3M melanoma): > 100 µM; TGI (MDA-MB-435): > 100 µM; TGI (OVCAR-8 ovarian): > 100 µM; TGI (A498 renal): > 100 µM; TGI (HS 578T breast): > 100 µM; TGI (ACHN renal): > 100 µM; TGI (CAKI-1 renal): > 100 µM; TGI (T-47D breast): > 100 µM; TGI (HOP-92 NSCLC): > 100 µM; TGI (SF-539 CNS): > 100 µM; TGI (HCT-116 colon): > 100 µM; TGI (HCT-15 colon): > 100 µM; TGI (HCC-2998 colon): > 100 µM; TGI (SK-MEL-28 melanoma): > 100 µM; TGI (OVCAR-4 ovarian): > 100 µM; TGI (A549 NSCLC): > 100 µM; TGI (SK-MEL-2 melanoma): > 100 µM; TGI (RPMI-8226 leukemia): > 100 µM; TGI (HOP-62 NSCLC): > 100 µM; TGI (SF-295 CNS): > 100 µM; TGI (SF-268 CNS): > 100 µM; TGI (NCI-H460 lung): > 100 µM; TGI (KM12 colon): > 100 µM; TGI (MDA-MB-231 breast): > 100 µM; TGI (SNB-75 CNS): > 100 µM; TGI (K-562 leukemia): > 100 µM; TGI (COLO 205 colon): > 100 µM; TGI (U251 CNS): > 100 µM; TGI (NCI-H226 lung): > 100 µM; TGI (SW-620 colon): > 100 µM; TGI (MCF7 breast): > 100 µM; TGI (IGROV1 ovarian): > 100 µM; TGI (786-0 renal): > 100 µM; TGI (HL-60(TB) leukemia): > 100 µM; TGI (BT-549 breast): > 100 µM; TGI (M14 melanoma): > 100 µM; TGI (MOLT-4 leukemia): > 100 µM; TGI (SK-OV-3 ovarian): > 100 µM
